# In patent US20260116910A1, “POLYCYCLIC COMPOUNDS AND METHODS THEREOF” (HEPAITECH (BEIJING) BIOPHARMA TECHNOLOGY CO., LTD., priority 2021, published 2026):
# Where two headings read alike, the source gives them in different places.
# Experiments:
# human FXR (NR1H4) = target: T1, human FXR (NR1H4) (Homo sapiens, UniProt Q96RI1); test: Human FXR (NR1H4) agonist assessment, FXRE-NanoLuc reporter in HEK293T cells; type: cell-based; details: for EC50: read-out: EC50
# T1 sequence (Q96RI1 1-476 isoform Q96RI1-1): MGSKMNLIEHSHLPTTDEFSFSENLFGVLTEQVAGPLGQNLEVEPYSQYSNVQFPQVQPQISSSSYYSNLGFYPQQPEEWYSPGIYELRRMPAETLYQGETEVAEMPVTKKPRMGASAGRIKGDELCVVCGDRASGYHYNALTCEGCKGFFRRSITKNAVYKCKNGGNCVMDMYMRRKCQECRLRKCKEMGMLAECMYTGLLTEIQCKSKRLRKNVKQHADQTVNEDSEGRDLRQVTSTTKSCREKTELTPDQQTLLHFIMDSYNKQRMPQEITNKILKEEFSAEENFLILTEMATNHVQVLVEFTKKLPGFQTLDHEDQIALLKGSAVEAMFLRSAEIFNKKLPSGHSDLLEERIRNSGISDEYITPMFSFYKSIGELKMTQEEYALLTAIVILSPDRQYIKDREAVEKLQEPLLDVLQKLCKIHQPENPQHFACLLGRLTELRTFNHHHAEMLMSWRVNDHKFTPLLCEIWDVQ
# Procedure: As those skilled in the art appreciate, various technologies are available for assessment of FXR activation in accordance with the present disclosure. […] Human FXR (NR1H4) agonist assessment (see, e.g., Yu et al. eLife 2019; 8: e48431): HEK293T cells stably expressing human FXR and containing FXR response element (FXRE)-NanoLuc reporter were cultured in DMEM medium supplemented with 10% FBS and 1% PS, at 37° C. in a humidified atmosphere with 5% CO2. Cells were detached by centrifuging (1000 rpm, 3 min). The pellet was re-suspended in medium, and cell density was adjusted to about 1×10^6 cells/mL. 100 μL suspension was seeded to each well of a white-walled, clear-bottom 96-well microplates (cell plate). Cells in microplates were cultured overnight.
# In the following day, cells were grown to higher than 95% density in each well. Culture medium was replaced, and compounds were added to the wells. 0.01% DMSO (v/v) served as negative control. Plates were incubated at 37° C. in 5% CO2 for 24 hr.
# In the following day, a 10 μL aliquot of cell culture medium was removed from each well and combined with 40 μL culture medium plus […] assay buffer (containing 20 mM of the luciferase substrate coelenterazine). After 5 min incubation, luminescence was measured using an EnVision plate reader (PerkinElmer).
# In some embodiments, gradient diluted solutions of several concentrations were used to treat cells and corresponding responses were used to fit sigmoid function and to derive EC50 in Origin.
# MRGPRX4 = MRGPRX4 (Homo sapiens, UniProt Q96LA9); test: MRGPRX4 activation, Fluo-8 Ca2+ FLIPR assay in HEK293T cells stably expressing MRGPRX4; type: cell-based; details: for EC50: MRGPRX4 activation, Ca2+ fluorescence
# Chain of MRGPRX4 (Q96LA9 whole entry): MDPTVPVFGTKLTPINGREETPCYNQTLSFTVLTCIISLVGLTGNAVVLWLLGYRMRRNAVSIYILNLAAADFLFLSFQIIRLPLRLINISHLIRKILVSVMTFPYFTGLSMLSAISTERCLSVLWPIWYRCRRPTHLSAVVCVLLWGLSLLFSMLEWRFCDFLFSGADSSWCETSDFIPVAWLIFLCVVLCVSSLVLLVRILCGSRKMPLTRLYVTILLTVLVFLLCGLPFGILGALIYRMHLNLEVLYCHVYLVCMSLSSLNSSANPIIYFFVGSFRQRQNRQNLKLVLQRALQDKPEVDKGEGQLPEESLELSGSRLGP
# Procedure: In some embodiments, cells were cultured in poly-D-Lys coated blacked walled, clear-bottom 96-well microplates. HEK293T cells stably expressing MRGPRX4 were cultured in DMEM medium supplemented with 10% FBS and 1% PS, at 37° C. in a humidified atmosphere with 5% CO2. Cells were detached by centrifuging (1000 rpm, 3 min). The pellet was re-suspended in medium, and cell density was adjusted to about 1×10^6 cells/mL. 100 μL suspension was seeded to each well of a microplates (cell plate). Cells in the microplates were cultured overnight. In the following day, cells were grown to higher than 95% density in each well.
# Ca^2+ fluorescent dye loading: Fluo-8 AM (Screen Quest Fluo-8 AM Calcium Assay Kit, AAT Bioquest, cat. #: 21083) was diluted in HHBS buffer and adjusted to 2 μM (dye buffer). Medium in each well was changed into 50 μL dye buffer carefully. After incubation for 40-60 min under room temperature, the dye buffer was changed into 50 μL HHBS buffer.
# The concentration of solution should be determined according to the protocol settings and experimental needs (e.g., Log[M]=−4, −5, −6, −7, −8, and −9). Prepare 2× serial dilution series of compounds (at least 75 μL per well).
# A fluorescent signal baseline was measured using FLIPR®Tetra for 30 s. Then 50 μL of the chemical solution would be added to the cell plate. The fluorescent signal would be measured for another 150 s.
# Activity of each compound was calculated by the fluorescence change (dF/F0). Curves were fitted to obtain EC50 values. In some embodiments, at least 3 repeats were performed to obtain the average values. For assessment of a compound, gradient diluted solutions of different concentrations were used to treat cells and corresponding responses were used to fit sigmoid function and to derive EC50 in Origin. In some embodiments, assessed concentrations were or included about 10^−4, 10^−4.5, 10^−5, 10^−5.5, 10^−6, 10^−6.5, 10^−7, 10^−8, and/or 10^−9 M; for example, in many instances, assessed concentrations included about 10^−5, 10^−6, 10^−7 and 10^−8 M. In some embodiments, assessed concentrations were about 10^−4, 10^−4.5, 10^−5, 10^−5.5, 10^−6, 10^−7, 10^−8, and 10^−9 M. In some embodiments, assessed concentrations were about 10^−4, 10^−5, 10^−6, 10^−7, 10^−8, and 10^−9 M. In some embodiments, assessed concentrations were about 10^−4, 10^−4.5, 10^−5, 10^−5.5, 10^−6, and 10^−7 M. In some embodiments, assessed concentrations were about 2000000, 1000000, 500000, 250000, 125000, 62500, 31250, 15625, 7813, 3906 nM. […] In some embodiments, assessed concentrations were about 30000, 10000, 3333, 1111, 370, 123, 41, 14, 4.6, 1.5 nM.
# [1] = FXR activation, HEK293T FXRE-NanoLuc reporter, 24 hr
smiles,measurement,setting,value
C[C@H](CCNC(=O)NS(=O)(=O)c1ccc(C(C)(C)CF)cc1)[C@H]1CC[C@H]2[C@@H]3CC[C@@H]4CCCC[C@]4(C)[C@H]3CC[C@]12C [21-1],"Efficacy (maximum measured induction of NanoLuc, normalized to CDCA set as 100%)",human FXR (NR1H4),B (key: A: efficacy >400%; B: 300%<efficacy <=400%; C: 100%<efficacy <=300%; D: efficacy <=100%)
same,EC50,human FXR (NR1H4); [1],1 to 10 µM
CC[C@H]1[C@@H](O)[C@@H]2[C@H](CC[C@]3(C)[C@@H]([C@H](C)CCN)CC[C@@H]23)[C@@]2(C)CCCC[C@@H]12 [6-1],"Efficacy (maximum measured induction of NanoLuc, normalized to CDCA set as 100%)",human FXR (NR1H4); [1],B (300%<efficacy <=400%)
same,EC50,human FXR (NR1H4); [1],< 1 µM
CC[C@H]1[C@@H](O)[C@@H]2[C@H](CC[C@]3(C)[C@@H]([C@H](C)CCOC(=O)NS(=O)(=O)c4ccc5c(c4)CCC(C)(C)O5)CC[C@@H]23)[C@@]2(C)CCCC[C@@H]12 [19-1],"Efficacy (maximum measured induction of NanoLuc, normalized to CDCA set as 100%)",human FXR (NR1H4); [1],B (300%<efficacy <=400%)
same,EC50,human FXR (NR1H4); [1],< 1 µM
"C[C@H](CCC(=O)O)[C@H]1CC[C@H]2[C@@H]3CC[C@@H]4C[C@H](O)CC[C@]4(C)[C@H]3C[C@H](O)[C@]12C [DCA, deoxycholic acid, reference compound]",Activation (%),"MRGPRX4; E3-8-1, 5 nM, n = 1",1.93%
same,Activation (%),"MRGPRX4; E3-8-1, 5 nM, n = 2",0.08%
same,Activation (%),"MRGPRX4; E3-8-1, 15 nM, n = 1",1.01%
same,Activation (%),"MRGPRX4; E3-8-1, 15 nM, n = 2",0.39%
same,Activation (%),"MRGPRX4; E3-8-1, 46 nM, n = 1",2.24%
same,Activation (%),"MRGPRX4; E3-8-1, 46 nM, n = 2",0.70%
same,Activation (%),"MRGPRX4; E3-8-1, 412 nM, n = 1",3.48%
same,Activation (%),"MRGPRX4; E3-8-1, 412 nM, n = 2",0.70%
same,Activation (%),"MRGPRX4; E3-8-1, 1235 nM, n = 1",14.9%
same,Activation (%),"MRGPRX4; E3-8-1, 1235 nM, n = 2",6.58%
same,Activation (%),"MRGPRX4; E3-8-1, 3704 nM, n = 1",37.5%
same,Activation (%),"MRGPRX4; E3-8-1, 3704 nM, n = 2",30.1%
same,Activation (%),"MRGPRX4; E3-8-1, 11111 nM, n = 1",73.8%
same,Activation (%),"MRGPRX4; E3-8-1, 11111 nM, n = 2",56.4%
same,Activation (%),"MRGPRX4; E3-8-1, 33333 nM, n = 1",95.1%
same,Activation (%),"MRGPRX4; E3-8-1, 33333 nM, n = 2",98.5%
same,Activation (%),"MRGPRX4; E3-8-1, 100000 nM, n = 1",96.4%
same,Activation (%),"MRGPRX4; E3-8-1, 100000 nM, n = 2",107.2%
"C[C@H](CCC(=O)O)[C@H]1CC[C@H]2[C@@H]3[C@H](O)C[C@@H]4C[C@H](O)CC[C@]4(C)[C@H]3CC[C@]12C [CDCA, chenodeoxycholic acid, reference compound]","MRGPRX4 activation, fluorescence change (dF/F0), Average",MRGPRX4; Conc. (Log[M]) −4,1.098
same,"MRGPRX4 activation, fluorescence change (dF/F0), Average",MRGPRX4; Conc. (Log[M]) −4.5,0.586
same,"MRGPRX4 activation, fluorescence change (dF/F0), Average",MRGPRX4; Conc. (Log[M]) −5,0.082
same,"MRGPRX4 activation, fluorescence change (dF/F0), Average",MRGPRX4; Conc. (Log[M]) −5.5,−0.017
same,"MRGPRX4 activation, fluorescence change (dF/F0), Average",MRGPRX4; Conc. (Log[M]) −6,−0.057
same,"MRGPRX4 activation, fluorescence change (dF/F0), Average",MRGPRX4; Conc. (Log[M]) −7,−0.044
same,"MRGPRX4 activation, fluorescence change (dF/F0), Average",MRGPRX4; Conc. (Log[M]) −8,−0.049
same,"MRGPRX4 activation, fluorescence change (dF/F0), Average",MRGPRX4; Conc. (Log[M]) −9,−0.070
"CC[C@H]1[C@@H](O)[C@@H]2[C@H](CC[C@]3(C)[C@@H]([C@H](C)CCC(=O)O)CC[C@@H]23)[C@@]2(C)CC[C@@H](O)C[C@@H]12 [OCA, obeticholic acid, reference compound]",Activation (%),"MRGPRX4; E3-8-1, 3906 nM, n = 1",3.48%
same,Activation (%),"MRGPRX4; E3-8-1, 3906 nM, n = 2",4.41%
same,Activation (%),"MRGPRX4; E3-8-1, 7813 nM, n = 1",3.48%
same,Activation (%),"MRGPRX4; E3-8-1, 7813 nM, n = 2",4.10%
same,Activation (%),"MRGPRX4; E3-8-1, 15625 nM, n = 1",6.58%
same,Activation (%),"MRGPRX4; E3-8-1, 15625 nM, n = 2",9.06%
same,Activation (%),"MRGPRX4; E3-8-1, 31250 nM, n = 1",13.7%
same,Activation (%),"MRGPRX4; E3-8-1, 31250 nM, n = 2",25.8%
same,Activation (%),"MRGPRX4; E3-8-1, 62500 nM, n = 1",65.7%
same,Activation (%),"MRGPRX4; E3-8-1, 62500 nM, n = 2",49.9%
same,Activation (%),"MRGPRX4; E3-8-1, 125000 nM, n = 1",100.4%
same,Activation (%),"MRGPRX4; E3-8-1, 125000 nM, n = 2",85.8%
same,Activation (%),"MRGPRX4; E3-8-1, 250000 nM, n = 1",104.4%
same,Activation (%),"MRGPRX4; E3-8-1, 250000 nM, n = 2",100.4%
same,Activation (%),"MRGPRX4; E3-8-1, 500000 nM, n = 1",138.8%
same,Activation (%),"MRGPRX4; E3-8-1, 500000 nM, n = 2",110.9%
same,Activation (%),"MRGPRX4; E3-8-1, 1000000 nM, n = 1",151.8%
same,Activation (%),"MRGPRX4; E3-8-1, 1000000 nM, n = 2",149.6%
same,Activation (%),"MRGPRX4; E3-8-1, 2000000 nM, n = 1",191.4%
same,Activation (%),"MRGPRX4; E3-8-1, 2000000 nM, n = 2",158.9%
same,EC50,"MRGPRX4; no activation in tested range reported as III, read-out: Activity (EC50 μM)",< 50 µM
same,EC50,"MRGPRX4; read-out: Activity (EC50 μM), value in parentheses",37 µM
